Results published in article PMC11233931, “Remodeling tumor‐associated macrophage for anti‐cancer effects by rational design of irreversible inhibition of mitogen‐activated protein kinase‐activated protein kinase 2” (MedComm, 2024).

Key:
Experiment in all cases: Eurofins kinase selectivity profile against 380 other human recombinant kinases (Table S2)
Format in all cases: biochemical
[1] = biological target: T1, 380 human recombinant protein kinases (Homo sapiens, UniProt P31749); conditions: PKBα(h), read-out: Inhibition rate
T1 construct: purchased Eurofins (Celle Lévescault)
Outline: (§1)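 Outsourced panel: 380 human recombinant kinases; inhibitor tested at various concentrations; purpose: MK2 selectivity check.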

[2] = biological target: T2, 380 human recombinant protein kinases (Homo sapiens, UniProt Q9P286); conditions: PAK5(h), read-out: Inhibition rate
T2 construct: purchased Eurofins (Celle Lévescault)
Outline: as §1

[3] = biological target: T3, 380 human recombinant protein kinases (Homo sapiens, UniProt P17612); conditions: PKA(h), read-out: Inhibition rate
T3 construct: purchased Eurofins (Celle Lévescault)
Outline: as §1

[4] = biological target: T4, 380 human recombinant protein kinases (Homo sapiens, UniProt Q15835); conditions: GRK1(h), read-out: Inhibition rate
T4 construct: purchased Eurofins (Celle Lévescault)
T4 sequence (Q15835 1-563): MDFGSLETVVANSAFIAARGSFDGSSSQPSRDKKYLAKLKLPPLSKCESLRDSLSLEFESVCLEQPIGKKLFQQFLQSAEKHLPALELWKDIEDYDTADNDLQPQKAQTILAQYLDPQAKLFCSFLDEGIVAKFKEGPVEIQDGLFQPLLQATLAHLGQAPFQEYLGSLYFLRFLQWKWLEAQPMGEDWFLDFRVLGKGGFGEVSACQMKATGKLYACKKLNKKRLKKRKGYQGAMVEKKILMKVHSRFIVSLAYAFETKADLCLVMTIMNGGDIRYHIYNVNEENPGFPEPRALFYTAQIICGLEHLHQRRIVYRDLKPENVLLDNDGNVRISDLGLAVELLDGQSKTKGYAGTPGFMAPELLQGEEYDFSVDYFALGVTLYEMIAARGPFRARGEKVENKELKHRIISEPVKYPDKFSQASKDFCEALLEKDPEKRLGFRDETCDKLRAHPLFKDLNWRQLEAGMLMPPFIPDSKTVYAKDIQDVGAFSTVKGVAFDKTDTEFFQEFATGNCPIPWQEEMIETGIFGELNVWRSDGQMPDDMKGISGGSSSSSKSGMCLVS
Outline: as §1

[5] = biological target: T5, 380 human recombinant protein kinases (Homo sapiens, UniProt Q9UM73); conditions: ALK(h), read-out: Inhibition rate
T5 construct: purchased Eurofins (Celle Lévescault)
Outline: as §1

[6] = biological target: T6, 380 human recombinant protein kinases (Homo sapiens, UniProt O60331); conditions: PIP5K1γ(h), read-out: Inhibition rate (%)
T6 construct: purchased Eurofins (Celle Lévescault)
Outline: as §1

[7] = biological target: T7, 380 human recombinant protein kinases (Homo sapiens, UniProt Q15349); conditions: Rsk3(h), read-out: Inhibition rate (%)
T7 construct: purchased Eurofins (Celle Lévescault)
Outline: as §1

[8] = biological target: T8, 380 human recombinant protein kinases (Homo sapiens, UniProt P08069); conditions: IGF-1R(h), read-out: Inhibition rate
T8 construct: purchased Eurofins (Celle Lévescault)
Outline: as §1

[9] = biological target: T9, 380 human recombinant protein kinases (Homo sapiens, UniProt O95747); conditions: OSR1(h), read-out: Inhibition rate
T9 construct: purchased Eurofins (Celle Lévescault)
Outline: as §1

[10] = biological target: T10, 380 human recombinant protein kinases (Homo sapiens, UniProt Q06187); conditions: BTK(h), read-out: Inhibition rate
T10 construct: purchased Eurofins (Celle Lévescault)
Outline: as §1

[11] = biological target: T11, 380 human recombinant protein kinases (Homo sapiens, UniProt Q8IVH8); conditions: MAP4K3(h), read-out: Inhibition rate
T11 construct: purchased Eurofins (Celle Lévescault)
T11 sequence (Q8IVH8 1-894): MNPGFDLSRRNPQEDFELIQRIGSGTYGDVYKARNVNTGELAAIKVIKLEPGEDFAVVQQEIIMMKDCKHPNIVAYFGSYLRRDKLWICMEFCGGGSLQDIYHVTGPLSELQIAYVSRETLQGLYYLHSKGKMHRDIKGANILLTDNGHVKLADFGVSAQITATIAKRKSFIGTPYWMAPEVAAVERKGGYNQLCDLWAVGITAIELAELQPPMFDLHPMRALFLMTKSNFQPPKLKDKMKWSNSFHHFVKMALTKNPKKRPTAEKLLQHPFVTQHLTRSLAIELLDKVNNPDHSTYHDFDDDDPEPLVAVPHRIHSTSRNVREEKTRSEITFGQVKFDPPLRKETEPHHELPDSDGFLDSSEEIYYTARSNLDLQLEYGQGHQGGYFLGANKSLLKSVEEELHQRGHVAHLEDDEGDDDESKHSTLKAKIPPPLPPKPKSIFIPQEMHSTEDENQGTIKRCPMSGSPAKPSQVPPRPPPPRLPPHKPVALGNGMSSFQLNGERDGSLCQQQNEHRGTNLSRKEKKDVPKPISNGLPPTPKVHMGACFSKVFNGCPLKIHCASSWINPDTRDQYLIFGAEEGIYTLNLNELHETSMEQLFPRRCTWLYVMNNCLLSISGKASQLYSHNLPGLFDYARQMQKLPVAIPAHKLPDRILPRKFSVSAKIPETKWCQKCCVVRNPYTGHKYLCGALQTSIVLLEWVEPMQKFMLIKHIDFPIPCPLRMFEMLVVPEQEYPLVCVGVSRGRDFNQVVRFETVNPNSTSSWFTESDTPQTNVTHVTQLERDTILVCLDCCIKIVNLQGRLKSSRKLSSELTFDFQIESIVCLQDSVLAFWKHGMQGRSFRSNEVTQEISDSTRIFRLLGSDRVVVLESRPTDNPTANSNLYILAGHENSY
Outline: as §1

T2 sequence (Q9P286 whole entry): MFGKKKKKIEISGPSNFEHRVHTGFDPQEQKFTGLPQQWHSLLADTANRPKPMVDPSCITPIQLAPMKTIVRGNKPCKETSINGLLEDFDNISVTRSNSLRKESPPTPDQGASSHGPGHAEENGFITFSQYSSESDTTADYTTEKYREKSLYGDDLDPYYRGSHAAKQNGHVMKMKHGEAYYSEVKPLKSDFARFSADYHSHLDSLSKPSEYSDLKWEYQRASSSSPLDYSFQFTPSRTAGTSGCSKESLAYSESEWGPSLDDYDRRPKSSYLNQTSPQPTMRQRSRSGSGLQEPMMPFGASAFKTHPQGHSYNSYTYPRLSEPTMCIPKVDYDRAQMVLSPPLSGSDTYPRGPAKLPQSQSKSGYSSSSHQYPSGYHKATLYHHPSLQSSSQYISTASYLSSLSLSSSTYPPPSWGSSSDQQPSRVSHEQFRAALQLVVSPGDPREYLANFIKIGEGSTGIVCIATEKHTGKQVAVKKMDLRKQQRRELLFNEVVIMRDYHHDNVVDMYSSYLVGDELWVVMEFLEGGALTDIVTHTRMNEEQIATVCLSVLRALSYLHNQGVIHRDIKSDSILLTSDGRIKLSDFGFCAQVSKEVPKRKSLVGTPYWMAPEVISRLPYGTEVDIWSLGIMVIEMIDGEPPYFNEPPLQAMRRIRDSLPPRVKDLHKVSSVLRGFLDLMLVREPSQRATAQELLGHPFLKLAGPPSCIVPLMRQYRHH
T10 sequence (Q06187 whole entry): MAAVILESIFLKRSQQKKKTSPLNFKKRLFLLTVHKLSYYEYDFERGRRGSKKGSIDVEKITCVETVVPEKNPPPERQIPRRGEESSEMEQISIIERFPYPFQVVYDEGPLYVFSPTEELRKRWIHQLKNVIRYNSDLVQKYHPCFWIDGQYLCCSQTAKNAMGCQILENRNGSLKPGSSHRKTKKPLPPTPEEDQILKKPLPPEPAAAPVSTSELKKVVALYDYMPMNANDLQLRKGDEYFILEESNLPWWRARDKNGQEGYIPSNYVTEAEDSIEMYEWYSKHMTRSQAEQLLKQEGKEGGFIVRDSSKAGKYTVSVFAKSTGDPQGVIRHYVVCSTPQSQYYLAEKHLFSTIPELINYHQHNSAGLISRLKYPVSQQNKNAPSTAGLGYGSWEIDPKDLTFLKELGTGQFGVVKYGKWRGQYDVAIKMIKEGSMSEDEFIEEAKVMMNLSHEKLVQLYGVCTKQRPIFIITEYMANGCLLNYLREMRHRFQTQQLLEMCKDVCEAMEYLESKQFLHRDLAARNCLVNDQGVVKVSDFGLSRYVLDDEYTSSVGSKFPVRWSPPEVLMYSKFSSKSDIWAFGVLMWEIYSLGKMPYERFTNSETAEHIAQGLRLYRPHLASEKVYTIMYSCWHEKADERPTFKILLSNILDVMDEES
T1 sequence (P31749 whole entry): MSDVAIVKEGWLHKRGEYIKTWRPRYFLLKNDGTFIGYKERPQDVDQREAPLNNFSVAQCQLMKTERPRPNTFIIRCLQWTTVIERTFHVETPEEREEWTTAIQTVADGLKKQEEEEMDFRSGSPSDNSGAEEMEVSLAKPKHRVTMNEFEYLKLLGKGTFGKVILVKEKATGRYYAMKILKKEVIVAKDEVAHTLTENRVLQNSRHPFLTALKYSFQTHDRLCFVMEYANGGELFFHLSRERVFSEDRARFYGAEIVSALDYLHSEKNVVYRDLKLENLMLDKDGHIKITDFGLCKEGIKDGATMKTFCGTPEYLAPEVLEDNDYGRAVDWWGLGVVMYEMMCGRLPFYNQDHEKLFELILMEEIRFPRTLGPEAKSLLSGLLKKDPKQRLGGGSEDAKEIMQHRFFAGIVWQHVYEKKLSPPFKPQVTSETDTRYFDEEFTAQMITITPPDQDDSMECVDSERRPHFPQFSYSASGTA
T5 sequence (Q9UM73 19-1620): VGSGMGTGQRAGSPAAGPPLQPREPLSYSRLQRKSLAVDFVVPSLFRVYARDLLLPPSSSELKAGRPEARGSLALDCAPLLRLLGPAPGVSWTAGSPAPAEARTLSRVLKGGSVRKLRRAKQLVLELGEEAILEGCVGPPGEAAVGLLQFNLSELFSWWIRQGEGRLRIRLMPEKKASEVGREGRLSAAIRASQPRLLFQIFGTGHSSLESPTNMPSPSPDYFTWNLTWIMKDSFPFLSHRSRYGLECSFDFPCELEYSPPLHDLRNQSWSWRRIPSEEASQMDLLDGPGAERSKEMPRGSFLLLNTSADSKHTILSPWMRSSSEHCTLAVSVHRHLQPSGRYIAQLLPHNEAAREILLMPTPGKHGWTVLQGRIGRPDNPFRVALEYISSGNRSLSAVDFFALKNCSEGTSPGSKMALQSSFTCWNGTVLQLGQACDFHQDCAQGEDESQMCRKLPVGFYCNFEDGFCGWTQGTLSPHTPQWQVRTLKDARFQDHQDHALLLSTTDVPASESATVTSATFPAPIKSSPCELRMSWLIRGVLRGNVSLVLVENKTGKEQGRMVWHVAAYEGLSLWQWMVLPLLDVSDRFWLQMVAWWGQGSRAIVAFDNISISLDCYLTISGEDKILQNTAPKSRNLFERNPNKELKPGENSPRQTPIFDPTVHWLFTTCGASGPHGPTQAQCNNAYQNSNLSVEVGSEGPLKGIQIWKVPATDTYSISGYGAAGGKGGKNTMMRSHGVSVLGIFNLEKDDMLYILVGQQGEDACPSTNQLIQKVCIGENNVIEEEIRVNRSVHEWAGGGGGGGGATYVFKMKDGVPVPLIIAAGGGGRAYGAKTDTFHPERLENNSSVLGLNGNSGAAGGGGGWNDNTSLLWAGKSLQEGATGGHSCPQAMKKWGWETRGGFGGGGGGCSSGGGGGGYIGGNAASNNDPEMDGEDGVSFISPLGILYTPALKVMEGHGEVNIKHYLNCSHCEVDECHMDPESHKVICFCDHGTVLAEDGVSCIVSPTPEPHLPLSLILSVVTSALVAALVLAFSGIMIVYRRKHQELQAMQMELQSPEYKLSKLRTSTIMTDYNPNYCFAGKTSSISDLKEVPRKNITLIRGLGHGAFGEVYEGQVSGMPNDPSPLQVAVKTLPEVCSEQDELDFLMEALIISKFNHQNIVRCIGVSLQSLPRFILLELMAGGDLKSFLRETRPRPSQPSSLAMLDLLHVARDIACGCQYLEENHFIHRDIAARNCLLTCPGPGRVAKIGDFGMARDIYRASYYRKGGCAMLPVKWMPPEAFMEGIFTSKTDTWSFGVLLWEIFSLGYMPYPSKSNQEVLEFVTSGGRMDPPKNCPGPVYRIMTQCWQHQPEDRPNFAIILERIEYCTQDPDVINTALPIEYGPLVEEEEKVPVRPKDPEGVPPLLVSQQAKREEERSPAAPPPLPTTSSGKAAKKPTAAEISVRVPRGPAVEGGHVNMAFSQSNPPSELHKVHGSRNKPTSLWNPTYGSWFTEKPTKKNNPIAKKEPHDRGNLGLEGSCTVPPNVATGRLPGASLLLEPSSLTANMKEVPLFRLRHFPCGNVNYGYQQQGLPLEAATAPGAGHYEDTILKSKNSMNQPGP
T8 sequence (P08069 31-1367): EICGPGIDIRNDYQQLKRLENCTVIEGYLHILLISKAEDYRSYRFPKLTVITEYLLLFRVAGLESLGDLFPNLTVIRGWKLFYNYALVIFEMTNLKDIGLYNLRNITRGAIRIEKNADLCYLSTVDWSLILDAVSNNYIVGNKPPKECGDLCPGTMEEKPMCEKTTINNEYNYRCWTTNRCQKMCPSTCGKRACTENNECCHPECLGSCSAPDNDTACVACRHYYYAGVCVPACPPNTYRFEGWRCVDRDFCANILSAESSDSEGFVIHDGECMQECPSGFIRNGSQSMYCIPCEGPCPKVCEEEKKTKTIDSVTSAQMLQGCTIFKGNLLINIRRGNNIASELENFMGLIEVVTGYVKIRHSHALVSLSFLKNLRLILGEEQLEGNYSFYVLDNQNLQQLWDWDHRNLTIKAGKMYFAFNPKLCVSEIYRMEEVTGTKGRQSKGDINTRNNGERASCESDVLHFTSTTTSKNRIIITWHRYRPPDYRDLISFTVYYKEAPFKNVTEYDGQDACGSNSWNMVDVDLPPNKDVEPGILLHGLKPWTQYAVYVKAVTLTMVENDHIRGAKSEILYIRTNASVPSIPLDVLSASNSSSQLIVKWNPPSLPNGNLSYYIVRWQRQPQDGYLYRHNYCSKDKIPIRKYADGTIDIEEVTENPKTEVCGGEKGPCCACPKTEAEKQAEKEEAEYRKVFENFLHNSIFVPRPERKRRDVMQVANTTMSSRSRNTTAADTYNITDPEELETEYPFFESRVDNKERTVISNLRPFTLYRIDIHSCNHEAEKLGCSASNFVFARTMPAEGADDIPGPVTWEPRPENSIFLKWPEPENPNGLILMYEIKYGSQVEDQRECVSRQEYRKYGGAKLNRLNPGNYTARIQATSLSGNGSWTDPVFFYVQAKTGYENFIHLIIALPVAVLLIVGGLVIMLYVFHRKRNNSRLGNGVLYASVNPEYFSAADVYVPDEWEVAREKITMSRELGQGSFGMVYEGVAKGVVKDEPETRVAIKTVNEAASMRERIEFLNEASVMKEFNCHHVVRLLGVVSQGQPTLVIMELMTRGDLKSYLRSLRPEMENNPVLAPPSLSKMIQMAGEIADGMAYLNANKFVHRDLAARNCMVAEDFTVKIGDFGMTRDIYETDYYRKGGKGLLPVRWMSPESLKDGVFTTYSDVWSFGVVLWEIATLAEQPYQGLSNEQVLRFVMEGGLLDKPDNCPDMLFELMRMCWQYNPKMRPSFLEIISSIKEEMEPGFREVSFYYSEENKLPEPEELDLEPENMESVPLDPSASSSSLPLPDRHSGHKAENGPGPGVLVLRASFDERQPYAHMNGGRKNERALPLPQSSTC

`C=CC(=O)Nc1cc(-c2cc(-c3cc4c([nH]3)CCNC4=O)ccn2)ccc1OC(F)(F)F` [compound 11] was tested, and the inhibition at 0.01 µM ([1]; 10 nM) was 2%, the inhibition at 0.1 µM ([1]; 100 nM) was 4% and the inhibition at 1 µM ([1]; 1000 nM) was 14%. The inhibition at 0.01 µM ([2]; 10 nM) was -2%, the inhibition at 0.1 µM ([2]; 100 nM) was -2% and the inhibition at 1 µM ([2]; 1000 nM) was -2%. The inhibition at 0.01 µM ([3]; 10 nM) was -7%, the inhibition at 0.1 µM ([3]; 100 nM) was -7% and the inhibition at 1 µM ([3]; 1000 nM) was -6%. The inhibition at 0.01 µM ([4]; 10 nM) was -6%, the inhibition at 0.1 µM ([4]; 100 nM) was -4% and the inhibition at 1 µM ([4]; 1000 nM) was -1%. It also gave an inhibition at 0.01 µM ([5]; 10 nM) of 6%, an inhibition at 0.1 µM ([5]; 100 nM) of 6% and an inhibition at 1 µM ([5]; 1000 nM) of 16%. For the same compound, the inhibition at 0.01 µM ([6]; 10 nM) was 0%, the inhibition at 0.1 µM ([6]; 100 nM) was -1% and the inhibition at 1 µM ([6]; 1000 nM) was 3%. It also gave an inhibition at 0.01 µM ([7]; 10 nM) of -9%, an inhibition at 0.1 µM ([7]; 100 nM) of 14% and an inhibition at 1 µM ([7]; 1000 nM) of 16%. It also gave an inhibition at 0.01 µM ([8]; 10 nM) of -3%, an inhibition at 0.1 µM ([8]; 100 nM) of -2% and an inhibition at 1 µM ([8]; 1000 nM) of -14%. The inhibition at 0.01 µM ([9]; 10 nM) was -1%, the inhibition at 0.1 µM ([9]; 100 nM) was 5% and the inhibition at 1 µM ([9]; 1000 nM) was 11%. For the same compound, the inhibition at 0.01 µM ([10]; 10 nM) was -4%, the inhibition at 0.1 µM ([10]; 100 nM) was 10% and the inhibition at 1 µM ([10]; 1000 nM) was 17%. For the same compound, the inhibition at 0.01 µM ([11]; 10 nM) was -8%, the inhibition at 0.1 µM ([11]; 100 nM) was -4% and the inhibition at 1 µM ([11]; 1000 nM) was 3%.
